How the values were obtained:
Assay type in all cases: biochemical
[1] = target: T1, human recombinant ROCK II (Homo sapiens, UniProt O75116); assay: Determination of Rho kinase inhibition (Caliper peptide phosphorylation assay); details: 60 min at 32° C., negative decadal logarithm of the IC50
T1 construct: N-terminal His6-tagged recombinant human ROCK-II residues 11-552; His6 (N); purchased Millipore GmbH, Schwalbach, Germany
Description: Determination of Rho Kinase Inhibition
To measure Rho-kinase inhibition, IC50 values were determined according to the following protocol:
Active human recombinant ROCK II (N-terminal His6-tagged recombinant human ROCK-II residues 11-552) was purchased from Millipore GmbH, Schwalbach, Germany. The peptide substrate, Fluorescein-[…]-COOH, was obtained from JPT Peptide Technologies, Berlin, Germany. Adenosine-5′-triphosphate (ATP), bovine serum albumine (BSA), dimethylsulphoxide (DMSO), 4-(2-Hydroxyethyl)piperazine-1-ethanesulfonic acid (Hepes), Brij-35, dithiothreitol (DTT) and Pluronic F-68 were purchased from Sigma-Aldrich, Munich, Germany. Tris(hydroxymethyl)-aminomethane (Tris), magnesium chloride, NaOH, 1M HCl and EDTA were obtained from Merck Biosciences, Darmstadt, Germany. “Complete” protease inhibitor was from Roche Diagnostics, Mannheim, Germany.
(§1) Test compounds were diluted to the appropriate concentrations in buffer 1 (25 mM Tris-HCl, pH 7.4, 5 mM MgCl2, 2 mM DTT, 0.02% (w/v) BSA, 0.01% Pluronic F-68 and 3% DMSO). The ROCK II enzyme was diluted to a concentration of 100 ng/mL in buffer 2 (25 mM Tris-HCl, pH 7.4, 5 mM MgCl2, 2 mM DTT and 0.02% (w/v) BSA). The peptide substrate and ATP were diluted to concentrations of 3 μM and 120 μM, respectively, in the buffer 2. Two μl of the compound solution were mixed with 2 μl of the diluted enzyme in a 384-well small volume microtiter plate (Greiner, Bio-One, Frickenhausen, Germany), and the kinase reaction was initiated by addition of 2 μl of the solution containing peptide substrate and ATP. After 60 min incubation at 32° C., the reaction was stopped by addition of 20 μl of a solution containing 100 mM Hepes-NaOH, pH 7.4, 0.015% (v/v) Brij-35, 45 mM EDTA and 0.227% chip coating reagent 1 (Caliper Lifescience Inc, Hopkinton, Mass.). Phosphorylation of the substrate peptide was then detected on a Caliper 3000 instrument essentially as described by Pommereau et al (J. Biomol. Screening 9(5), 409-416, 2004). Separation conditions were as follows: Pressure −1.3 psi, upstream voltage −1562 V, downstream voltage −500 V, sample sip time 200 ms. Positive controls (buffer 1 instead of compound) and negative controls (buffer 1 instead of compound and buffer 2 instead of ROCK II) were run in parallel on each plate.
The following products/compounds were tested in said assay by using the respective form (salt or free base) obtained as in the examples described above and the following activities were measured

recombinant human PKA = target: T2, recombinant human PKA (Homo sapiens, UniProt P17612); assay: Determination of Protein Kinase A inhibition (Caliper peptide phosphorylation assay); details: recombinant human PKA versus ROCK II
T2 construct: Active recombinant human PKA (residues 1-351, N-terminal His-tag); His-tag (N); purchased Invitrogen, Karlsruhe, Germany
Description: (§2) Determination of Protein Kinase A and Protein Kinase G Inhibition
(§3) To measure PKA and PKG1-beta inhibition, IC50 values were determined according to the following protocol:
(§4) Active recombinant human PKG1-beta (full-length, with N-terminal His-tag) was purchased from Millipore GmbH, Schwalbach, Germany. Active recombinant human PKA (residues 1-351, N-terminal His-tag) was obtained from Invitrogen, Karlsruhe, Germany. The peptide substrate, Fluorescein-[…]-COOH, was obtained from JPT Peptide Technologies, Berlin, Germany. Adenosine-5′-triphosphate (ATP), bovine serum albumine (BSA), dimethylsulphoxide (DMSO), 4-(2-Hydroxyethyl)piperazine-1-ethanesulfonic acid (Hepes), Brij-35, dithiothreitol (DTT) and Pluronic F-68 were purchased from Sigma-Aldrich, Munich, Germany. Tris(hydroxymethyl)-aminomethane (Tris), magnesium chloride, NaOH, 1M HCl and EDTA were obtained from Merck Biosciences, Darmstadt, Germany. “Complete” protease inhibitor was from Roche Diagnostics, Mannheim, Germany.
as §1, with “PKG1-beta and PKA were” for “The ROCK II enzyme was”, “concentrations” for “a concentration”, “150 ng/ml and 30 ng/ml, respectively,” for “100 ng/mL”, “2.” for “2 (25 mM Tris-HCl, pH 7.4, 5 mM MgCl2, 2 mM DTT and 0.02% (w/v) BSA).”, “kinase solution)” for “ROCK II)”, “plate. The following products/compounds were tested in said assay by using the respective form (salt or free base) obtained as in the examples described above and the following activities were measured.” for “plate.”

[2] = target: T3, recombinant human PKG1-beta (Homo sapiens, UniProt Q13976); assay: Determination of Protein Kinase G inhibition (Caliper peptide phosphorylation assay); details: recombinant human PKG1-beta versus ROCK II
T3 construct: Active recombinant human PKG1-beta (full-length, with N-terminal His-tag); His-tag (N); purchased Millipore GmbH, Schwalbach, Germany
T3 sequence (Q13976 1-686 isoform Q13976-2): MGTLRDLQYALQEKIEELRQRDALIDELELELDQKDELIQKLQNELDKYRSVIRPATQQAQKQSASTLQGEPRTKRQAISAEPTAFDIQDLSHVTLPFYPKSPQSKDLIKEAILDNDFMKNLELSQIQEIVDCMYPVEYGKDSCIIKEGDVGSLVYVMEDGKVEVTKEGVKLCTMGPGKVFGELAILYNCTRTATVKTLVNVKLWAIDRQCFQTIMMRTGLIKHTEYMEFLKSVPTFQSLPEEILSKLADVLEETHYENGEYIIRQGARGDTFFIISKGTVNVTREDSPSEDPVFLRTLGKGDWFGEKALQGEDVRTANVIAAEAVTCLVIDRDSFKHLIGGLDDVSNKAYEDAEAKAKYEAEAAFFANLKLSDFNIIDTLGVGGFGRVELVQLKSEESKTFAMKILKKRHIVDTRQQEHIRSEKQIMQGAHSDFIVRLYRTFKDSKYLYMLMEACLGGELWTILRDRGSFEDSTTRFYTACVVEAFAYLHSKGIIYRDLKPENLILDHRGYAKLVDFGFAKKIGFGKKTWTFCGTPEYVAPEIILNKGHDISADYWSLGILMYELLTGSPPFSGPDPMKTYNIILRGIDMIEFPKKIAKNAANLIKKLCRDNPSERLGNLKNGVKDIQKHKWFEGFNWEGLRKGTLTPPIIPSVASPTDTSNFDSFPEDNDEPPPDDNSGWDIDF
Description: as §2, §3, §4
as §1, with “PKG1-beta and PKA were” for “The ROCK II enzyme was”, “concentrations” for “a concentration”, “150 ng/ml and 30 ng/ml, respectively,” for “100 ng/mL”, “2.” for “2 (25 mM Tris-HCl, pH 7.4, 5 mM MgCl2, 2 mM DTT and 0.02% (w/v) BSA).”, “kinase solution)” for “ROCK II)”, “plate. The following products/compounds were tested in said assay by using the respective form (salt or free base) obtained as in the examples described above and the following activities were measured.” for “plate.”

T1 sequence (O75116 11-552): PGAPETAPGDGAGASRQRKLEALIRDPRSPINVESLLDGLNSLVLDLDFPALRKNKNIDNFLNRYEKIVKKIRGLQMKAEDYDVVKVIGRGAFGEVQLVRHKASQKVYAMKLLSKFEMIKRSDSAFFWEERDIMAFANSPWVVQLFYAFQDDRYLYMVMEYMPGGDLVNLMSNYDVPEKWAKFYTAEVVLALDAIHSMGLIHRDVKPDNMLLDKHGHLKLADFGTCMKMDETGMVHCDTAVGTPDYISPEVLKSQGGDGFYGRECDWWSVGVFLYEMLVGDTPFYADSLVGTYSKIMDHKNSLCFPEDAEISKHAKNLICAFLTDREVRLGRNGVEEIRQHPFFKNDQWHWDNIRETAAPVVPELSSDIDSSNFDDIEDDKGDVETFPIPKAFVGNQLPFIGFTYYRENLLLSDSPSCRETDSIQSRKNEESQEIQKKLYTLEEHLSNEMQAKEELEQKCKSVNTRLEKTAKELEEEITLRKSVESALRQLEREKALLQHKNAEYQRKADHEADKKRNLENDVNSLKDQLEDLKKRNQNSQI

Molecule | pIC50 [1] | Selectivity against PKA (recombinant human PKA) | Selectivity against PKG [2] | IC50 [1] [nM]
CCC(N)[C@]1(c2ccccc2)CC[C@@H](Oc2cc3cc[nH]c(=O)c3cc2Cl)CC1 (some centres unmarked) [Example 32] | ++++++ (7.0≦pIC50<8.0) | >1000 | >300 | 
cis-6-[4-(1- Amino-propyl)-4- (3-bromo- phenyl)-cyclo hexyloxy]-7- chloro-2H-iso quinolin-1-one [Example 29] | +++++++ (8.0≦pIC50) | >1000 | >1000 | 
CCC(N)[C@]1(c2cccc(OC)c2)CC[C@H](Oc2cc3cc[nH]c(=O)c3cc2Cl)CC1 (some centres unmarked) [Example 28] | +++++++ (8.0≦pIC50) | >1000 | >1000 | 
CCC(N)[C@]1(c2ccccc2OC(F)(F)F)CC[C@H](Oc2cc3cc[nH]c(=O)c3cc2Cl)CC1 (stereo partly drawn) [Example 61, cis-6-[4-(1-Amino-propyl)-4-(2-trifluoromethoxy-phenyl)-cyclohexyloxy]-7-chloro-2H-iso quinolin-1-one] | +++++ (6.0≦pIC50<7.0) | >10 | >1 | 
CCC(N)[C@]1(c2cccc(OC(F)(F)F)c2)CC[C@H](Oc2cc3cc[nH]c(=O)c3cc2C)CC1 (stereo partly drawn) [Example 85, cis-6-[4-(1-Amino-propyl)-4-(3-trifluoro-methoxy-phenyl)-cyclo-hexyloxy]-7-methyl-2H-iso quinolin-1-one] | +++++ (6.0≦pIC50<7.0) | >100 | >10 | 
CCCC(N)[C@]1(c2ccc(F)cc2)CC[C@H](Oc2cc3cc[nH]c(=O)c3cc2Cl)CC1 (stereo partly drawn) [Example 5, cis-6-[4-(1-Amino-butyl)-4-(4-fluoro-phenyl)-cyclo-hexyloxy]-7-chloro-2H-isoquinolin-1-one] | +++++++ (8.0≦pIC50) | >1000 | >300 | 
CC(C)(N)[C@]1(c2ccccc2)CC[C@H](Oc2cc3cc[nH]c(=O)c3cc2Cl)CC1 [Example 25, cis-6-[4-(1-Amino-1-methyl-ethyl)-4-phenyl-cyclo-hexyloxy]-7-chloro-2H-iso quinolin-1-one] | +++++++ (8.0≦pIC50) | >1000 | >100 | 
CC(N)[C@]1(c2ccccc2)CC[C@H](Oc2cc3cc[nH]c(=O)c3cc2Cl)CC1 (stereo partly drawn) [Example 24, cis-6-[4-(1-Amino-ethyl)-4-phenyl-cyclohexyloxy]-7-chloro-2H-iso quinolin-1-one] | +++++++ (8.0≦pIC50) | >1000 | >300 | 
CC(N)C[C@]1(c2ccc(F)cc2)CC[C@H](Oc2cc3cc[nH]c(=O)c3cc2Cl)CC1 (stereo partly drawn) [Example 109, cis-6-[4-(2-Amino-propyl)-4-(4-fluoro-phenyl)-cyclohexyloxy]-7-chloro-2H-isoquinolin-1-one] | ++++++ (7.0≦pIC50<8.0) | >300 | >100 | 
CC(C)(N)[C@]1(c2ccc(F)cc2)CC[C@H](Oc2cc3cc[nH]c(=O)c3cc2Cl)CC1 [Example 77, cis-6-[4-(1-Amino-1-methyl-ethyl)-4-(4-fluoro-phenyl)-cyclohexyloxy]-7-chloro-2H-isoquinolin-1-one] | +++++++ (8.0≦pIC50) | >1000 | >300 | 
CCCC(C)(N)C1CCC(Oc2cc3cc[nH]c(=O)c3cc2Cl)CC1 (single isomer, unassigned) [Example 121, 6-{4-[1-Amino-1-n-propyl-ethyl]-cyclohexyloxy}-7-chloro-2H-isoquinolin-1-one] |  | >100 | >10 | 10 to 100
NC(c1ccccc1)C1CCC(Oc2cc3cc[nH]c(=O)c3cc2Cl)CC1 (centres unmarked) [Example 128, 6-[4-(amino-phenyl-methyl)-cyclohexyloxy]-7-chloro-2H-isoquinolin-1-one] | +++++ (6.0≦pIC50<7.0) | >10 | >10 | 
COc1ccc(C(C)(N)C2CCC(Oc3cc4cc[nH]c(=O)c4cc3Cl)CC2)cc1 (centres unmarked) [Example 117, 6-{4-[1-Amino-1-(4-methoxy-phenyl)-ethyl]-cyclohexyloxy}-7-chloro-2H-isoquinolin-1-one] |  | >300 | >10 | 
